Reference: patent publication US11565992B2, “Methods for separation of azeotrope or azeotrope-like compositions of trifluoroiodomethane (CF3I) and trifluoroacetyl chloride (CF3COCI)” (Honeywell International Inc., priority 2020, dated 2023)

How the values were obtained:
[1] = Differential solubility in acetonitrile (PTx method, NRTL model); settings: at or near ambient conditions; for solubility in acetonitrile: solvent acetonitrile, from NRTL model generated from the PTx data (FIG. 7)
Description: Static Vapor-Liquid Equilibrium Methods are a class of experimental techniques that can be used to identify thermodynamic interactions between a solvent (i.e. absorbing species) and a target solute (i.e. species being absorbed). One such technique, known as the PTx method, collects measurements of the total saturation pressure (“P”) exerted by mixtures of known compositions (“x”) at fixed temperatures (“T”) and cell volumes. […] Using data collected from the PTx experiment, as well as pure component properties of constituents of the mixtures, the thermodynamic properties of the mixtures can be accurately characterized by fitting the component's interaction parameters in a well-defined thermodynamic equation; one such equation is the Nonrandom, Two-liquid (NRTL) activity coefficient model by Renon and Prausnitz (Local Compositions in Thermodynamic Excess Functions for Liquid Mixtures, AIChE Journal, Vol. 14, January 1968, pp. 135-144).
(§1) From a well-characterized thermodynamic model (such as NRTL fit against PTx data), solubility curves can be generated. The solubility is defined as the liquid composition of the solute in the liquid phase at saturation, generally as a function of pressure and temperature. By comparing solubility curves for different solutes, the solvent's selectivity (i.e. preference) towards a particular solute can be identified; the larger the selectivity the more the solvent prefers to absorb one species while rejecting the other.
Following the same procedure as described in Example 7A, the PTx behavior of trifluoroiodomethane (CF3I) with acetonitrile and trifluoroacetyl chloride (CF3COCl) with acetonitrile was studied at temperatures of −10° C., 10° C., 30° C., and 50° C. […]
(§2) Using the NRTL model generated from the PTx data, the solubility of both trifluoroiodomethane (CF3I) and trifluoroacetyl chloride (CF3COCl) for a given temperature and pressure can be determined and compared.

[2] = Differential solubility in toluene (PTx method, NRTL model); settings: around ambient conditions; for solubility in toluene: solvent toluene, from NRTL model generated from the PTx data (FIG. 5)
Description: One such technique, known as the PTx method, collects measurements of the total saturation pressure (“P”) exerted by mixtures of known compositions (“x”) at fixed temperatures (“T”) and cell volumes. […] Using data collected from the PTx experiment, as well as pure component properties of constituents of the mixtures, the thermodynamic properties of the mixtures can be accurately characterized by fitting the component's interaction parameters in a well-defined thermodynamic equation; one such equation is the Nonrandom, Two-liquid (NRTL) activity coefficient model by Renon and Prausnitz (Local Compositions in Thermodynamic Excess Functions for Liquid Mixtures, AIChE Journal, Vol. 14, January 1968, pp. 135-144).
as §1
A set of volume calibrated PTx cells were used to measure the solubility characteristics of trifluoroiodomethane (CF3I) in toluene as well as trifluoroacetyl chloride (CF3COCl) in toluene. Mixtures of trifluoroiodomethane (CF3I) and toluene as well as trifluoroacetyl chloride (CF3COCl) and toluene were gravimetrically prepared into evacuated PTx cells. […] Once at equilibrium, recognized when temperature and pressures of each cell remain stable for several hours, the local temperature and saturation pressures of each cell were recorded and adjustments for the next set point were made. […]
as §2

[3] = Differential solubility in mineral oil (PTx method, NRTL model); settings: solvent mineral oil; at or near ambient conditions; from NRTL model generated from the PTx data (FIG. 6)
Description: as §1
Following the same procedure described in Example 7A, the PTx behavior of trifluoroiodomethane (CF3I) with mineral oil and trifluoroacetyl chloride (CF3COCl) with mineral oil was studied at temperatures of 0° C., 20° C., 40° C., and 60° C. Unlike toluene (a single aromatic hydrocarbon entity), the mineral oil solvent comprised a mixture several types of hydrocarbons such as alkanes, cycloalkanes, and others. From the pressure-temperature-composition data, the binary interaction parameters of trifluoroiodomethane (CF3I) with mineral oil and trifluoroacetyl chloride (CF3COCl) with mineral oil for the NRTL activity coefficient model were identified.
as §2

SMILES | selectivity of solvent towards CF3I over CF3COCl ([1]; acetonitrile) | selectivity of solvent towards CF3I over CF3COCl ([2]; toluene) | solubility in toluene [2] | solubility in mineral oil [3] | solubility in acetonitrile [1]
CC#N [acetonitrile] | about 2.5 times |  |  |  | 
Cc1ccccc1 [toluene] |  | about 3.5 times |  |  | 
O=C(Cl)C(F)(F)F [trifluoroacetyl chloride] |  |  | about 11.6 mass % | about 3.6 mass % | about 15.8 mass %
FC(F)(F)I [trifluoroiodomethane] |  |  | about 40.8 mass % | about 12.2 mass % | about 39.0 mass %
